The subject of this assay is mice. Briefly: Innate behavioral response to odorant in square odor box (3D depth imaging, AR-HMM analysis). In kind it is in vivo, mouse.

SMILES strings stand for the structures.

Take `CC1=NC(C)SC1C` (stereo not drawn) [TMT]: the “observed behavior of mice on odor exposure” value (TMT delivered to one quadrant of the square box via olfactometer) was “avoided the quadrant containing the predator cue and displayed prolonged periods of immobility traditionally described as freezing behavior”. Besides, where the note is “after TMT exposure”, the “per frame entropy rate with self-transitions” value amounted to 0.64±0.02 bits and the “per frame entropy rate without self-transitions” value stood at 3.66±0.08 bits. Moreover, the “number of times the most commonly-expressed freezing trigram was expressed” value (after TMT exposure, in 300 minutes of imaging) was 716 times. Besides, the “change in behavioral modules relative to control” value (n=15 in TMT, n=25 control, model co-trained on both datasets) was “several modules were up-or down-regulated after TMT exposure, but no new modules were introduced or eliminated relative to control”. The “average during-sequence velocity of freezing module sequences” value (under the influence of TMT, 5% concentration, delivered to one quadrant of the box) is recorded as −0.14±0.54 mm/sec.
